Assay results reported in patent US20240277890A1, “ANTIMICROBIAL ARTICLES COMPRISING POLYURETHANE” (Amicoat AS, priority 2021, published 2024).
≈ marks a conversion by molar mass, not a printed value. Where two headings read alike, the source gives them in different places. Peptide text beside a SMILES is read from it. * marks the point of attachment. NHPhenethyl = c1ccc(CCN*)cc1

Assays:
[1] = system: Methicillin resistant Staphylococcus aureus (MRSA) strain ATCC 33591
[2] = system: Methicillin resistant Staphylococcus epidermidis (MRSE) strain ATCC 27626
[3] = system: Staphylococcus aureus, strain ATCC 25923
E. coli = conditions: Table 5
P. aeruginosa = conditions: Table 5
trypsin = assay: in vitro; assay type: in vitro ADME; conditions: pH 8.6
Experimental: Each peptide was dissolved in a 0.1 M NH4HCO3 buffer (pH 6.5) to yield a final peptide concentration of 1 mg/ml. A trypsin solution was prepared by dissolving 1 mg of trypsin in 50 ml 0.1 M NH4HCO3 buffer (pH 8.2). For the stability determination, 250 μl freshly made trypsin solution and 250 μl peptide solution were incubated in 2 ml of 0.1 M NH4HCO3 buffer (pH 8.6) at 37° C. on a rocking table. Aliquots of 0.5 ml were sampled at different time intervals, diluted with 0.5 ml water:acetonitrile (60:40 v/v) containing 1% TFA and analysed by RP-HPLC as described above. Samples without trypsin addition taken at 0 h and after 20 h at 37° C. were used as negative controls. Integration of the peak area at 254 nm for samples taken during the first 5 hours of the assay was used to generate the τ1/2.

[4] = system: Salmonella sp - antibiotic-susceptible clinical isolate; assay: MIC microbroth dilution (CLSI); assay type: cell-based
[5] = system: Salmonella sp - multi-drug resistant clinical isolate; assay: MIC microbroth dilution (CLSI); assay type: cell-based
[6] = system: Shigella sp - antibiotic-susceptible clinical isolate; assay: MIC microbroth dilution (CLSI); assay type: cell-based
[7] = system: Clostridium difficile - antibiotic-susceptible clinical isolate; assay: MIC microbroth dilution (CLSI); assay type: cell-based; set-up: unit not given beside the values; conditions: C. difficile antibiotic-susceptible
Experimental: Supplemented Brucella broth (SBB) was used for the anaerobic strains with an inoculum of approximately 10^6 CFU/mL. SBB is a broth consisting of 1% peptone, 0.5% ‘Lab-lemco’, 1% glucose and 0.5% sodium chloride supplemented with 5 μg/L haemin and 1 μg/L vitamin K (both obtained from Sigma Aldrich Ltd.) Yeast and filamentous fungal MIC were performed in MOPS buffered RPMI 1640 medium (MOPS buffer obtained from Sigma Aldrich Ltd., RPMI 1640 obtained from Invitrogen Ltd, Paisley, Scotland). The yeast inocula were in the range 7.5×10^2-4×10^3 CFU/mL and the filamentous fungi approximately 8×10^3-1×10^5 CFU/mL.

[8] = system: Candida parapsilosis ATCC 22019; assay: MIC microbroth dilution (CLSI), extra control strain; assay type: cell-based; set-up: unit not given here; conditions: C. parapsilosis ATCC 22019; RPMI 1640
[9] = system: Bacteroides fragilis - ATCC 25285; assay: as above; assay type: cell-based; set-up: unit not given here; conditions: B. fragilis ATCC 25285; SBB
[10] = system: Eggerthella lenta - ATCC 43055; assay: as above; assay type: cell-based; set-up: unit not given here; conditions: E. lenta ATCC 43055; SBB
[11] = system: Staphylococcus aureus FDA486; assay: Murine skin infection model, one day topical treatment; assay type: in vivo, mice; conditions: cream or gel containing 2% (w/w) of compound; three topical treatments at three hourly intervals; compared to placebo
Experimental: (§1) The skin of mice was infected with Staphylococcus aureus or Streptococcus pyogenes and subsequently given a total of three treatments at three hourly intervals. Three hours after the last treatment, skin biopsies were collected and the number of colony forming units (CFUs) present in the skin sample was determined. Results are shown in FIGS. 3, 4 and 5 expressed as the number of colony forming units per mouse.

[12] = system: Streptococcus pyogenes CS301; assay: as above; assay type: in vivo, mice
Experimental: as §1

[13] = system: Microsporum canis - G.R. Micro collection; conditions: M. canis
[14] = system: Escherichia coli ATCC25922 - antibiotic-susceptible type strain; set-up: MIC (repeat control strain): unit not given beside the values; conditions: E. coli ATCC 25922
[15] = system: Pseudomonas aeruginosa ATCC27853 - antibiotic-susceptible type strain; set-up: MIC (repeat control strain): unit not given beside the values; conditions: P. aeruginosa ATCC 27853
[16] = system: Staphylococcus aureus ATCC 29213 - antibiotic-susceptible control strain; set-up: MIC (repeat control strain): unit not given beside the values; conditions: S. aureus ATCC 29213
[17] = system: Staphylococcus haemolyticus - antibiotic susceptible clinical isolate; conditions: S. haemolyticus antibiotic susceptible isolate
[18] = system: Enterococcus faecalis - ATCC 29212 antibiotic-susceptible control strain; set-up: MIC (repeat control strain): unit not given beside the values; conditions: E. faecalis ATCC 29212
[19] = system: Haemophilus influenzae - ATCC 47247; assay: MIC microbroth dilution (CLSI), extra control strain; set-up: unit not given beside the values; conditions: H. influenzae ATCC 47247; plate type HTM
[20] = Staphylococcus aureus ATCC 25923

N=C(N)NCCC[C@H](NC(=O)[C@H](Cc1ccc(-c2cccc3ccccc23)cc1)NC(=O)[C@@H](N)CCCNC(=N)N)C(=O)NCCc1ccccc1 [Compound 3]
MIC MRSA ([1]; MRSA ATCC 33591): 3 µM (≈ 2.12 µg/mL)
MIC MRSE ([2]; MRSE ATCC 27626): 3 µM (≈ 2.12 µg/mL)

CC(C)(C)c1cc(C(C)(C)C)c2[nH]c(C(C)(C)C)c(C[C@H](NC(=O)[C@@H](N)CCCNC(=N)N)C(=O)N[C@@H](CCCNC(=N)N)C(=O)NC3CCCCC3)c2c1 [Compound 13]
S. aureus (MIC) ([3]; ATCC 25923): <2 µg/mL
MRSA (MIC) ([1]; ATCC 33591): 2 µg/mL
MRSE (MIC) ([2]; ATCC 27626): 2 µg/mL
C. albicans (MIC) (C. albicans): 10 µg/mL
S. pyogenes (MIC) (S. pyogenes): <2 µg/mL

CCCCCCCCCCCCCCCCNC(=O)[C@H](CCCNC(=N)N)NC(=O)[C@H](Cc1c(C(C)(C)C)[nH]c2c(C(C)(C)C)cc(C(C)(C)C)cc12)NC(=O)[C@@H](N)CCCNC(=N)N [Compound 11]
S. aureus (MIC) [3, 20]: 5 µg/mL
MRSA (MIC) ([1]; MRSA ATCC 33591): 4 µg/mL
MRSE (MIC) ([2]; MRSE ATCC 27626): 4 µg/mL
C. albicans (MIC) (C. albicans; Table 5): >100 µg/mL
S. pyogenes (MIC) (S. pyogenes; Table 5): 6 µg/mL
E. coli (MIC) (E. coli): >100 µg/mL
P. aeruginosa (MIC) (P. aeruginosa): >100 µg/mL

CC(C)CNC(=O)[C@H](CCCNC(=N)N)NC(=O)[C@H](Cc1c(C(C)(C)C)[nH]c2c(C(C)(C)C)cc(C(C)(C)C)cc12)NC(=O)[C@@H](N)CCCNC(=N)N [Compound 12]
S. aureus (MIC) ([3]; ATCC 25923): <2 µg/mL
MRSA (MIC) ([1]; ATCC 33591): 3 µg/mL
MRSE (MIC) ([2]; ATCC 27626): 2 µg/mL
C. albicans (MIC) (C. albicans): 10 µg/mL
S. pyogenes (MIC) (S. pyogenes): 2 µg/mL

N=C(N)NCCC[C@H](NC(=O)[C@H](Cc1ccc(-c2ccc(-c3ccccc3)cc2)cc1)NC(=O)[C@@H](N)CCCNC(=N)N)C(=O)NCCc1ccccc1 [Compound 5]
MIC S. aureus [3, 20]: 5 µM (≈ 3.66 µg/mL)
MIC MRSA ([1]; MRSA ATCC 33591): 3 µM (≈ 2.2 µg/mL)
MIC MRSE ([2]; MRSE ATCC 27626): 3 µM (≈ 2.2 µg/mL)

N=C(N)NCCC[C@H](NC(=O)[C@H](Cc1ccc(-c2ccc3ccccc3c2)cc1)NC(=O)[C@@H](N)CCCNC(=N)N)C(=O)NCCc1ccccc1 [Compound 1]
half-life at 0.1 mg/ml (trypsin): > 24 h
MIC S. aureus [3, 20]: 4 µM (≈ 2.83 µg/mL)
MIC MRSA ([1]; MRSA ATCC 33591): <3 µM
MIC MRSE ([2]; MRSE ATCC 27626): <3 µM

N=C(N)NCCC[C@H](NC(=O)[C@H](Cc1c[nH]c2ccccc12)NC(=O)[C@@H](N)CCCNC(=N)N)C(=O)NCCc1ccccc1 [Compound 6, reference compound] (H-Arg-Trp-Arg-NHPhenethyl)
MIC S. aureus [3, 20]: 145 µM (≈ 89.9 µg/mL)
MIC MRSA ([1]; MRSA ATCC 33591): 97 µM (≈ 60.1 µg/mL)
MIC MRSE ([2]; MRSE ATCC 27626): 81 µM (≈ 50.2 µg/mL)

CC(C)(C)c1cc(C(C)(C)C)c2[nH]c(C(C)(C)C)c(CC(NC(=O)C(N)CCCNC(=N)N)C(=O)NC(CCCNC(=N)N)C(=O)NCCc3ccccc3)c2c1 (stereo not shown) [Compound 2]
MIC [4]: 8
MIC [5]: 8
MIC [6]: 8
MIC [7]: 16
MIC (control strain) [8]: 8
MIC (control strain) [9]: 64
MIC (control strain) [10]: 32
number of CFUs in skin biopsy [11]: the number of CFUs was reduced
number of CFUs in skin biopsy ([12]; 1% or 2% gel, three topical treatments at three hourly intervals, compared to placebo gel and bactroban): more effective at reducing the number of CFUs than the placebo gel or the bactroban
number of CFUs in skin biopsy, 2% gel versus 1% gel ([12]; gel containing 2% compared to gel containing 1%): more effective than the gel containing only 1% of compound 2
MIC [13]: 8
MIC (repeat control strain) ([14]; plate type Fresh MHB): 8
MIC (repeat control strain) ([14]; plate type Frozen MHB): 8
MIC (repeat control strain) ([15]; plate type Fresh MHB): 8
MIC (repeat control strain) ([15]; plate type Frozen MHB): 8
MIC (repeat control strain) ([16]; plate type Fresh MHB): 2
MIC (repeat control strain) ([16]; plate type Frozen MHB): 4
MIC [17]: 4
MIC (repeat control strain) ([18]; plate type Fresh MHB): 4
MIC (repeat control strain) ([18]; plate type Frozen MHB): 8
MIC (control strain) [19]: 4

CC(C)(C)c1cc(C(C)(C)C)c2[nH]c(C(C)(C)C)c(C[C@H](NC(=O)[C@@H](N)CCCNC(=N)N)C(=O)N[C@@H](CCCNC(=N)N)C(=O)NC3CCCC3)c2c1 [Compound 14]
S. aureus (MIC) ([3]; ATCC 25923): <2 µg/mL
MRSE (MIC) ([2]; ATCC 27626): <2 µg/mL
C. albicans (MIC) (C. albicans): 10 µg/mL
S. pyogenes (MIC) (S. pyogenes): 2 µg/mL

CCCCNC(=O)[C@H](CCCNC(=N)N)NC(=O)[C@H](Cc1c(C(C)(C)C)[nH]c2c(C(C)(C)C)cc(C(C)(C)C)cc12)NC(=O)[C@@H](N)CCCNC(=N)N [Compound 9]
S. aureus (MIC) ([3]; ATCC 25923): 2 µg/mL
MRSA (MIC) ([1]; ATCC 33591): 3 µg/mL
MRSE (MIC) ([2]; ATCC 27626): <2 µg/mL
C. albicans (MIC) (C. albicans): 10 µg/mL
S. pyogenes (MIC) (S. pyogenes): 2 µg/mL

CCCNC(=O)[C@H](CCCNC(=N)N)NC(=O)[C@H](Cc1c(C(C)(C)C)[nH]c2c(C(C)(C)C)cc(C(C)(C)C)cc12)NC(=O)[C@@H](N)CCCNC(=N)N [Compound 10]
S. aureus (MIC) ([3]; ATCC 25923): 2 µg/mL
MRSA (MIC) ([1]; ATCC 33591): 3 µg/mL
MRSE (MIC) ([2]; ATCC 27626): <2 µg/mL
C. albicans (MIC) (C. albicans): 10 µg/mL
S. pyogenes (MIC) (S. pyogenes): 2 µg/mL
